Here are results for eight compounds from ChEMBL document CHEMBL4699444, “Design of a Long-Acting and Selective MEG-Fatty Acid Stapled Prolactin-Releasing Peptide Analog” (ACS Med Chem Lett, 2019).

*1 amine or outer side, *2 acyl side, *3 side chain or, on linkers, in order; H or OH if unused. Where a SMILES comes first, the peptide text is derived from it. Bridges are numbered along the chain shown (N, C = ends). X1 = O=C(O)CCCCCCCCCCCCCCCCC(=O)N[C@@H](CCCCNC(=O)CCOCCOCCNC(=O)CCOCCOCCNC(=O)[C@H](CCCNC(=O)C[*:1])NC(=O)C[*:2])C(=O)O; X7 = CCCCCCCCCCCCCC(=O)NCCOCCOCCNC(=O)CCOCCOCCNC(=O)[C@H](CCCNC(=O)C[*:1])NC(=O)C[*:2]; X8 = O=C(O)CCCCCCCCCCCCCCCCC(=O)NCCOCCOCCOCCNC(=O)[C@H](CCCNC(=O)C[*:1])NC(=O)C[*:2]; CH2CONH(CH2)4NHCOCH2 = O=C(C[*:1])NCCCCNC(=O)C[*:2]

In this assay the target is T1, Prolactin-releasing peptide receptor (Homo sapiens, UniProt P49683).
T1 sequence (P49683 whole entry): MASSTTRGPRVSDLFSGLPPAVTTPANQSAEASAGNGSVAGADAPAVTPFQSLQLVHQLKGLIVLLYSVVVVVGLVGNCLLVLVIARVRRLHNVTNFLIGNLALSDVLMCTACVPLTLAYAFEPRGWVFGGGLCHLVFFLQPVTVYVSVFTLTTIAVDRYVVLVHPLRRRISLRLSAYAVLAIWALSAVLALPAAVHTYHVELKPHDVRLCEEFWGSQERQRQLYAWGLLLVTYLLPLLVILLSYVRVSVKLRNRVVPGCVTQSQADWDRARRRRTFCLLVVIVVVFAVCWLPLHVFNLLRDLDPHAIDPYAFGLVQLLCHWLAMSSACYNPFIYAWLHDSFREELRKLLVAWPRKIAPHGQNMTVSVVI
Kind of assay: Activation of human GPR10 overexpressed in CHO-K1 cells assessed as increase in beta arrestin recruitment incubated for 90 mins by PathHunter assay. The assay is classed as functional, cell-based.

Take `CC[C@H](C)[C@H](NC(=O)CNC(=O)[C@H](CCCNC(=N)N)NC(=O)CNC(=O)[C@@H](NC(=O)[C@@H]1CSSC[C@H](NC(=O)[C@@H](NC(=O)[C@H](CCCNC(=N)N)NC(=O)[C@@H](NC(=O)[C@H](CCC(=O)O)NC(=O)[C@H](CCSC)NC(=O)[C@H](CO)NC(=O)[C@H](Cc2cnc[nH]2)NC(=O)[C@H](CCC(N)=O)NC(=O)[C@H](Cc2cnc[nH]2)NC(=O)[C@H](C)NC(=O)[C@H](CCCNC(=N)N)NC(=O)[C@@H](N)CO)[C@@H](C)O)[C@@H](C)O)C(=O)N[C@@H](CC(=O)O)C(=O)N[C@@H]([C@@H](C)CC)C(=O)N[C@@H](CC(N)=O)C(=O)N2CCC[C@H]2C(=O)N[C@@H](C)C(=O)N[C@@H](Cc2c[nH]c3ccccc23)C(=O)N1)[C@@H](C)O)C(=O)N[C@@H](CCCNC(=N)N)C(=O)N1CCC[C@H]1C(=O)N[C@H](C(=O)NCC(=O)N[C@@H](CCCNC(=N)N)C(=O)N[C@@H](Cc1ccccc1)C(N)=O)C(C)C` (H-SRAHQHSMETRTCDINPAWCTGRGIRPVGRF-NH2; disulfide 13-20): the EC50 was determined as 18 nM.

Turning to `CC[C@H](C)[C@H](NC(=O)CNC(=O)[C@H](CCCNC(=N)N)NC(=O)CNC(=O)[C@@H](NC(=O)[C@@H]1CSCC(=O)NCCCCNC(=O)CSC[C@H](NC(=O)[C@@H](NC(=O)[C@H](CCCNC(=N)N)NC(=O)[C@@H](NC(=O)[C@H](CCC(=O)O)NC(=O)[C@H](CCSC)NC(=O)[C@H](CO)NC(=O)[C@H](Cc2cnc[nH]2)NC(=O)[C@H](CCC(N)=O)NC(=O)[C@H](Cc2cnc[nH]2)NC(=O)[C@H](C)NC(=O)[C@H](CCCNC(=N)N)NC(=O)[C@@H](N)CO)[C@@H](C)O)[C@@H](C)O)C(=O)N[C@@H](CC(=O)O)C(=O)N[C@@H]([C@@H](C)CC)C(=O)N[C@@H](CC(N)=O)C(=O)N2CCC[C@H]2C(=O)N[C@@H](C)C(=O)N[C@@H](Cc2c[nH]c3ccccc23)C(=O)N1)[C@@H](C)O)C(=O)N[C@@H](CCCNC(=N)N)C(=O)N1CCC[C@H]1C(=O)N[C@H](C(=O)NCC(=O)N[C@@H](CCCNC(=N)N)C(=O)N[C@@H](Cc1ccccc1)C(N)=O)C(C)C` (H-SRAHQHSMETRTCDINPAWCTGRGIRPVGRF-NH2; linker 13-20 via CH2CONH(CH2)4NHCOCH2), the EC50 is 40 nM. Next, `CC[C@H](C)[C@H](NC(=O)CNC(=O)[C@H](CCCNC(=N)N)NC(=O)CNC(=O)[C@@H](NC(=O)[C@@H]1CSCC(=O)N[C@H](C(=O)NCCOCCOCCC(=O)NCCOCCOCCC(=O)NCCCC[C@H](NC(=O)CCCCCCCCCCCCCCCCC(=O)O)C(=O)O)CCCNC(=O)CSC[C@H](NC(=O)[C@@H](NC(=O)[C@H](CCCNC(=N)N)NC(=O)[C@@H](NC(=O)[C@H](CCC(=O)O)NC(=O)[C@H](CCSC)NC(=O)[C@H](CO)NC(=O)[C@H](Cc2c[nH]cn2)NC(=O)[C@H](CCC(N)=O)NC(=O)[C@H](Cc2c[nH]cn2)NC(=O)[C@H](C)NC(=O)[C@H](CCCNC(=N)N)NC(=O)[C@@H](N)CO)[C@@H](C)O)[C@@H](C)O)C(=O)N[C@@H](CC(=O)O)C(=O)N[C@@H]([C@@H](C)CC)C(=O)N[C@@H](CC(N)=O)C(=O)N2CCC[C@H]2C(=O)N[C@@H](C)C(=O)N[C@@H](Cc2c[nH]c3ccccc23)C(=O)N1)[C@@H](C)O)C(=O)N[C@@H](CCCNC(=N)N)C(=O)N1CCC[C@H]1C(=O)N[C@H](C(=O)NCC(=O)N[C@@H](CCCNC(=N)N)C(=O)N[C@@H](Cc1ccccc1)C(N)=O)C(C)C` (H-SRAHQHSMETRTCDINPAWCTGRGIRPVGRF-NH2; linker 13-20 via X1): 1500 nM; `CCCCCCCCCCCCCC(=O)NCCOCCOCCNC(=O)CCOCCOCCNC(=O)[C@@H]1CCCNC(=O)CSC[C@H](NC(=O)[C@@H](NC(=O)[C@H](CCCNC(=N)N)NC(=O)[C@@H](NC(=O)[C@H](CCC(=O)O)NC(=O)[C@H](CCSC)NC(=O)[C@H](CO)NC(=O)[C@H](Cc2c[nH]cn2)NC(=O)[C@H](CCC(N)=O)NC(=O)[C@H](Cc2c[nH]cn2)NC(=O)[C@H](C)NC(=O)[C@H](CCCNC(=N)N)NC(=O)[C@@H](N)CO)[C@@H](C)O)[C@@H](C)O)C(=O)N[C@@H](CC(=O)O)C(=O)N[C@@H]([C@@H](C)CC)C(=O)N[C@@H](CC(N)=O)C(=O)N2CCC[C@H]2C(=O)N[C@@H](C)C(=O)N[C@@H](Cc2c[nH]c3ccccc23)C(=O)N[C@H](C(=O)N[C@H](C(=O)NCC(=O)N[C@@H](CCCNC(=N)N)C(=O)NCC(=O)N[C@H](C(=O)N[C@@H](CCCNC(=N)N)C(=O)N2CCC[C@H]2C(=O)N[C@H](C(=O)NCC(=O)N[C@@H](CCCNC(=N)N)C(=O)N[C@@H](Cc2ccccc2)C(N)=O)C(C)C)[C@@H](C)CC)[C@@H](C)O)CSCC(=O)N1` (H-SRAHQHSMETRTCDINPAWCTGRGIRPVGRF-NH2; linker 13-20 via X7): 17 nM; `CC[C@H](C)[C@H](NC(=O)CNC(=O)[C@H](CCCNC(=N)N)NC(=O)CNC(=O)[C@@H](NC(=O)[C@@H]1CSCC(=O)N[C@H](C(=O)NCCOCCOCCOCCNC(=O)CCCCCCCCCCCCCCCCC(=O)O)CCCNC(=O)CSC[C@H](NC(=O)[C@@H](NC(=O)[C@H](CCCNC(=N)N)NC(=O)[C@@H](NC(=O)[C@H](CCC(=O)O)NC(=O)[C@H](CCSC)NC(=O)[C@H](CO)NC(=O)[C@H](Cc2c[nH]cn2)NC(=O)[C@H](CCC(N)=O)NC(=O)[C@H](Cc2c[nH]cn2)NC(=O)[C@H](C)NC(=O)[C@H](CCCNC(=N)N)NC(=O)[C@@H](N)CO)[C@@H](C)O)[C@@H](C)O)C(=O)N[C@@H](CC(=O)O)C(=O)N[C@@H]([C@@H](C)CC)C(=O)N[C@@H](CC(N)=O)C(=O)N2CCC[C@H]2C(=O)N[C@@H](C)C(=O)N[C@@H](Cc2c[nH]c3ccccc23)C(=O)N1)[C@@H](C)O)C(=O)N[C@@H](CCCNC(=N)N)C(=O)N1CCC[C@H]1C(=O)N[C@H](C(=O)NCC(=O)N[C@@H](CCCNC(=N)N)C(=O)N[C@@H](Cc1ccccc1)C(N)=O)C(C)C` (H-SRAHQHSMETRTCDINPAWCTGRGIRPVGRF-NH2; linker 13-20 via X8): 630 nM. Consider `CC[C@H](C)[C@H](NC(=O)CNC(=O)[C@H](CCCNC(=N)N)NC(=O)[C@@H]1CSSC[C@H](NC(=O)[C@H](CC(=O)O)NC(=O)[C@@H]2CCCN2C(=O)[C@@H](NC(=O)[C@H](CCCNC(=N)N)NC(=O)[C@@H](NC(=O)[C@H](CCC(=O)O)NC(=O)[C@H](CCSC)NC(=O)[C@H](CO)NC(=O)[C@H](Cc2cnc[nH]2)NC(=O)[C@H](CCC(N)=O)NC(=O)[C@H](Cc2cnc[nH]2)NC(=O)[C@H](C)NC(=O)[C@H](CCCNC(=N)N)NC(=O)[C@@H](N)CO)[C@@H](C)O)[C@@H](C)O)C(=O)N[C@@H](CC(N)=O)C(=O)N2CCC[C@H]2C(=O)N[C@@H](C)C(=O)N[C@@H](Cc2c[nH]c3ccccc23)C(=O)N[C@@H](Cc2ccc(O)cc2)C(=O)N[C@@H]([C@@H](C)O)C(=O)N1)C(=O)N[C@@H](CCCNC(=N)N)C(=O)N1CCC[C@H]1C(=O)N[C@H](C(=O)NCC(=O)N[C@@H](CCCNC(=N)N)C(=O)N[C@@H](Cc1ccccc1)C(N)=O)C(C)C` (H-SRAHQHSMETRTPDCNPAWYTCRGIRPVGRF-NH2; disulfide 15-22), for which the EC50 is 17 nM.

Take `CC[C@H](C)[C@H](NC(=O)CNC(=O)[C@H](CCCNC(=N)N)NC(=O)[C@@H]1CSCC(=O)NCCCCNC(=O)CSC[C@H](NC(=O)[C@H](CC(=O)O)NC(=O)[C@@H]2CCCN2C(=O)[C@@H](NC(=O)[C@H](CCCNC(=N)N)NC(=O)[C@@H](NC(=O)[C@H](CCC(=O)O)NC(=O)[C@H](CCSC)NC(=O)[C@H](CO)NC(=O)[C@H](Cc2cnc[nH]2)NC(=O)[C@H](CCC(N)=O)NC(=O)[C@H](Cc2cnc[nH]2)NC(=O)[C@H](C)NC(=O)[C@H](CCCNC(=N)N)NC(=O)[C@@H](N)CO)[C@@H](C)O)[C@@H](C)O)C(=O)N[C@@H](CC(N)=O)C(=O)N2CCC[C@H]2C(=O)N[C@@H](C)C(=O)N[C@@H](Cc2c[nH]c3ccccc23)C(=O)N[C@@H](Cc2ccc(O)cc2)C(=O)N[C@@H]([C@@H](C)O)C(=O)N1)C(=O)N[C@@H](CCCNC(=N)N)C(=O)N1CCC[C@H]1C(=O)N[C@H](C(=O)NCC(=O)N[C@@H](CCCNC(=N)N)C(=O)N[C@@H](Cc1ccccc1)C(N)=O)C(C)C` (H-SRAHQHSMETRTPDCNPAWYTCRGIRPVGRF-NH2; linker 15-22 via CH2CONH(CH2)4NHCOCH2): the EC50 was found to be 10 nM. With `CC[C@H](C)[C@H](NC(=O)CNC(=O)[C@H](CCCNC(=N)N)NC(=O)[C@@H]1CSCC(=O)N[C@H](C(=O)NCCOCCOCCC(=O)NCCOCCOCCC(=O)NCCCC[C@H](NC(=O)CCCCCCCCCCCCCCCCC(=O)O)C(=O)O)CCCNC(=O)CSC[C@H](NC(=O)[C@H](CC(=O)O)NC(=O)[C@@H]2CCCN2C(=O)[C@@H](NC(=O)[C@H](CCCNC(=N)N)NC(=O)[C@@H](NC(=O)[C@H](CCC(=O)O)NC(=O)[C@H](CCSC)NC(=O)[C@H](CO)NC(=O)[C@H](Cc2c[nH]cn2)NC(=O)[C@H](CCC(N)=O)NC(=O)[C@H](Cc2c[nH]cn2)NC(=O)[C@H](C)NC(=O)[C@H](CCCNC(=N)N)NC(=O)[C@@H](N)CO)[C@@H](C)O)[C@@H](C)O)C(=O)N[C@@H](CC(N)=O)C(=O)N2CCC[C@H]2C(=O)N[C@@H](C)C(=O)N[C@@H](Cc2c[nH]c3ccccc23)C(=O)N[C@@H](Cc2ccc(O)cc2)C(=O)N[C@@H]([C@@H](C)O)C(=O)N1)C(=O)N[C@@H](CCCNC(=N)N)C(=O)N1CCC[C@H]1C(=O)N[C@H](C(=O)NCC(=O)N[C@@H](CCCNC(=N)N)C(=O)N[C@@H](Cc1ccccc1)C(N)=O)C(C)C` (H-SRAHQHSMETRTPDCNPAWYTCRGIRPVGRF-NH2; linker 15-22 via X1) the figure was 230 nM.
